From PubChem BioAssay AID1259408 (Genetic Toxicology Data Bank (GENE-TOX), 2018) come the findings set out here.

Structures are written as SMILES. The source made the active and inactive calls. The rule behind the calls is not given here.

In the series the test system is GENE-TOX genotoxicity assays, various organisms and cells. As to the kind of experiment: GENE-TOX mutagenicity studies. The settings on record: for call: Assay Type: In vivo carcinogenicity studies. The source says: GENE-TOX provides genetic toxicology (mutagenicity) test data from expert peer review of open scientific literature for more than 3,000 chemicals from the United States Environmental Protection Agency (EPA). GENE-TOX was established to select assay systems for evaluation, review data in the scientific literature, and recommend proper testing protocols and evaluation procedures for these systems.
GENE-TOX covers the years 1991 - 1998. It is no longer updated.
This is an archive assay for GENE-TOX mutagenicity studies.

Setting [1] is: Species/Cell Type: Bacillus subtilis (H17 vs M45), Assay Type: Rec-assay, spot test, DNA effects (bacterial DNA repair), Assay Code: REWT, Evaluation Type: Evaluation A (Pre-1980).
Setting [2] is: Species/Cell Type: Human lymphocytes, Assay Type: Sister-chromatid exchange (SCE) in vitro, Assay Code: SCL+, Evaluation Type: Evaluation B (Post-1980).
Setting [3] is: Species/Cell Type: Human, Assay Type: Sister-chromatid exchange (SCE) in vitro, Assay Code: SC1+, Evaluation Type: Evaluation B (Post-1980).
The mark [4] stands for this setting: Species/Cell Type: Chinese hamster lung (V79) cells, Assay Type: Forward gene mutation at the HPRT or ouabain locus, Assay Code: V79+, Evaluation Type: Evaluation A (Pre-1980).
[5] abbreviates: Species/Cell Type: Salmonella typhimurium (one or more of the five standard strains: TA98, TA100, TA1535, TA1537, and TA1538), Assay Type: Histidine reverse gene mutation, Ames assay, Assay Code: SAL+*, Activation: With metabolic activation, Evaluation Type: Evaluation A (Pre-1980).
Setting [6] is: Species/Cell Type: Escherichia coli polA (W3119 vs P3478), Assay Type: Rec-assay, DNA effects (bacterial DNA repair), Assay Code: RE1T, Evaluation Type: Evaluation A (Pre-1980).
[7] abbreviates: Species/Cell Type: Nonhuman, Assay Code: CCG+, Evaluation Type: Evaluation A (Pre-1980).
Setting [8] is: Species/Cell Type: Salmonella typhimurium (one or more of the five standard strains: TA98, TA100, TA1535, TA1537, and TA1538), Assay Type: Histidine reverse gene mutation, Ames assay, Assay Code: SAL-, Evaluation Type: Evaluation A (Pre-1980).
Where [9] appears, read: Species/Cell Type: Salmonella typhimurium, Assay Type: Forward and reverse gene mutation, host-mediated assay, Assay Code: HMA+, Evaluation Type: Evaluation A (Pre-1980).
The mark [10] stands for this setting: Species/Cell Type: Syrian hamster embryo (SA7/SHE) cells, Assay Type: Cell transformation, viral enhanced, Assay Code: CT7-, Evaluation Type: Evaluation A (Pre-1980).
[11] abbreviates: Species/Cell Type: Salmonella typhimurium (one or more of the five standard strains: TA98, TA100, TA1535, TA1537, and TA1538), Assay Type: Histidine reverse gene mutation, Ames assay, Assay Code: SALT, Evaluation Type: Evaluation A (Pre-1980).

For the compound `O=Nc1c([O-])ccc2cc(S(=O)(=O)[O-])ccc12.O=Nc1c([O-])ccc2cc(S(=O)(=O)[O-])ccc12.O=Nc1c([O-])ccc2cc(S(=O)(=O)[O-])ccc12.[Fe+3].[Na+].[Na+].[Na+]`, the mutagenic call under setting [1] is “no conclusion”.
Turning to `COc1ccc(-c2oc3c(OC)c(OC)c(OC)cc3c(=O)c2OC)cc1`, where the note is “Species/Cell Type: Bacillus subtilis (H17 vs M45), Assay Type: Rec-assay, spot test, DNA effects (bacterial DNA repair), Assay Code: REW+, Evaluation Type: Evaluation A (Pre-1980)”, the mutagenic call was “active; positive”.
As to `CCN(CCCl)CCCNc1c2ccccc2nc2ccccc12`, the mutagenic call (Species/Cell Type: Chinese hamster ovary (CHO) cells, Assay Type: Forward gene mutation at the HPRT locus, Assay Code: CHO+, Evaluation Type: Evaluation B (Post-1980)) is “active; positive”.
`Nc1ccc(/C=C/c2ccc([N+](=O)[O-])o2)nn1`: the mutagenic call was “active; positive” (Species/Cell Type: Glycine max (soybean), Assay Type: Gene mutation, Assay Code: GLM+, Evaluation Type: Evaluation A (Pre-1980)); “active; positive” under setting [2]; “active; positive” (Species/Cell Type: Human lymphocytes, Assay Type: Sister-chromatid exchange (SCE) in vitro, Assay Code: SCL+D, Dose Response: With dose response, Evaluation Type: Evaluation A (Pre-1980)); “active; positive” under setting [3]; “active; positive” (Species/Cell Type: Human, Assay Type: Sister-chromatid exchange (SCE) in vitro, Assay Code: SC1+D, Dose Response: With dose response, Evaluation Type: Evaluation A (Pre-1980)); “active; positive” (Species/Cell Type: Saccharomyces cerevisiae, Assay Type: Forward and reverse gene mutation, mitotic recombination and gene conversion, DNA effects, body fluid assay, Assay Code: BFC+, Evaluation Type: Evaluation A (Pre-1980)). Also, the mutagenic call (Species/Cell Type: Saccharomyces cerevisiae, Assay Type: Forward and reverse gene mutation, mitotic recombination and gene conversion, host-mediated assay, Assay Code: HME-, Evaluation Type: Evaluation A (Pre-1980)) is “inactive; negative”; the mutagenic call (Species/Cell Type: Saccharomyces cerevisiae, Assay Type: Mitotic recombination or gene conversion, Assay Code: YEC+, Evaluation Type: Evaluation A (Pre-1980)) is “active; positive”; the mutagenic call (Species/Cell Type: Saccharomyces cerevisiae, Assay Type: Mitotic recombination or gene conversion, Assay Code: YEH+, Evaluation Type: Evaluation A (Pre-1980)) is “active; positive”.
For the compound `[Pb]`, the mutagenic call (Species/Cell Type: Human lymphocytes or leukocytes, Assay Type: Chromosome aberrations in vitro, Assay Code: CY7-, Evaluation Type: Evaluation A (Pre-1980)) was “inactive; negative”; the mutagenic call (Species/Cell Type: Human lymphocytes or leukocytes, Assay Type: Chromosome aberrations in vivo, Assay Code: CY8T, Evaluation Type: Evaluation A (Pre-1980)) is given as “no conclusion”; the mutagenic call (Species/Cell Type: Human, Sex: Male, Assay Type: Sperm morphology, Assay Code: SPH+, Evaluation Type: Evaluation A (Pre-1980)) was “active; positive”; the mutagenic call (Species/Cell Type: Nonhuman bone marrow, Assay Type: Chromosome aberrations, in vivo, Assay Code: CY#-, Evaluation Type: Evaluation A (Pre-1980)) is “inactive; negative”. The call (Species/Cell Type: Nonhuman, Assay Code: CCGT, Evaluation Type: Evaluation A (Pre-1980)) is on record as “no conclusion”.
For `O[C@@H]1[C@H]2O[C@H]2c2cc3ccc4ccccc4c3cc2[C@H]1O`, the mutagenic call under setting [4] was “active; positive”.
Regarding `Cc1ccc2cc3c(ccc4ccccc43)c3c2c1C(=O)C3`, the mutagenic call under setting [4] was “active; positive” and the mutagenic call under setting [5] is “active; positive”. In addition, the call (Species/Cell Type: Nonhuman, Assay Code: CCG+L, Evaluation Type: Evaluation A (Pre-1980)) was “active; positive”.
For the compound `CC(C)CBr`, under setting [6], the mutagenic call is “no conclusion”.
Consider `NC(N)=S`, for which the mutagenic call is, setting by setting: (Species/Cell Type: Allium cepa, Assay Type: Chromosome aberrations, Assay Code: ALC-, Evaluation Type: Evaluation A (Pre-1980)) “inactive; negative”; (Species/Cell Type: Escherichia coli polA (W3110 vs P3478), Assay Type: Rec-assay, DNA effects (bacterial DNA repair), Assay Code: RE2-, Evaluation Type: Evaluation A (Pre-1980)) “inactive; negative”; under setting [6], “no conclusion”; (Species/Cell Type: Fischer rat embryo (RLV/1706) cells, Assay Type: Cell transformation, viral enhanced, Assay Code: CTR+, Evaluation Type: Evaluation A (Pre-1980)) “active; positive”; (Species/Cell Type: Fischer rat embryo (SA7/RE) cells, Assay Type: Cell transformation, viral enhanced, Assay Code: CTA+, Evaluation Type: Evaluation A (Pre-1980)) “active; positive”; (Species/Cell Type: Mouse, Sex: Male, Assay Type: Sperm morphology, Assay Code: SPI-, Evaluation Type: Evaluation A (Pre-1980)) “inactive; negative”. Besides, the mutagenic call by setting is: (Species/Cell Type: Nonhuman, Assay Type: Sister-chromatid exchange (SCE) in vitro, Assay Code: SC2+, Evaluation Type: Evaluation B (Post-1980)) “active; positive”; (Species/Cell Type: Saccharomyces cerevisiae, Assay Type: Mitotic recombination or gene conversion, Assay Code: YEH-, Evaluation Type: Evaluation A (Pre-1980)) “inactive; negative”; under setting [8], “inactive; negative”; under setting [9], “active; positive”; under setting [10], “inactive; negative”; (Species/Cell Type: Syrian hamster embryo (SHE) cells, Assay Type: Cell transformation, clonal assay, Assay Code: CTC+, Evaluation Type: Evaluation A (Pre-1980)) “active; positive”. For the same compound, the call under setting [7] is “active; positive”.
As for `CCCCCCCCCCCCCC(=O)ON(C(=O)CCCCCCCCCCCCC)c1ccc2c(c1)Cc1ccccc1-2`, the mutagenic call (Species/Cell Type: Human diploid fibroblasts, Assay Type: Unscheduled DNA synthesis (UDS) in vitro, DNA effects, Assay Code: UDH+, Evaluation Type: Evaluation A (Pre-1980)) was “active; positive” and the mutagenic call under setting [11] is “no conclusion”.
For `OCCO`, the mutagenic call (Species/Cell Type: Drosophila melanogaster, Assay Type: Aneuploidy, sex chromosome gain, chromosome aberrations, Assay Code: DAGT, Evaluation Type: Evaluation A (Pre-1980)) is listed as “no conclusion”; the mutagenic call (Species/Cell Type: Drosophila melanogaster, Assay Type: Aneuploidy, whole sex chromosome loss, chromosome aberrations, Assay Code: DACT, Evaluation Type: Evaluation A (Pre-1980)) is “no conclusion”; the mutagenic call (Species/Cell Type: Neurospora crassa, Assay Type: Aneuploidy, chromosome aberrations, Assay Code: NEN-, Evaluation Type: Evaluation A (Pre-1980)) is “inactive; negative”; the mutagenic call under setting [8] is “inactive; negative”; the mutagenic call under setting [10] was “inactive; negative”.
For `CCCCCCCCCCCCCCCCCCOCC(O)COP(=O)([O-])OCC[N+](C)(C)C` (stereo not drawn), the mutagenic call (Species/Cell Type: Mammalian polychromatic erythrocytes, Assay Type: Micronucleus test, chromosome aberrations, Assay Code: MNTT, Evaluation Type: Evaluation B (Post-1980)) is “no conclusion”.
Consider `CC(C)CCC[C@@H](C)[C@H]1CC[C@H]2[C@@H]3CC=C4C[C@@H](OC(=O)Cc5ccc(N(CCCl)CCCl)cc5)CC[C@]4(C)[C@H]3CC[C@]12C`, for which the call under setting [7] is “active; positive”.
As to `CN(C)c1ccccc1N=Nc1ccccc1`, the mutagenic call under setting [9] was “active; positive”.
`CN(C)/C=N/c1nnc(/C=C/c2ccc([N+](=O)[O-])o2)o1`: the call under setting [7] is “active; positive”. Further, for the setting “Species/Cell Type: Salmonella typhimurium (one or more of the five standard strains: TA98, TA100, TA1535, TA1537, and TA1538), Assay Type: Histidine reverse gene mutation, Ames assay, Assay Code: SAL+, Evaluation Type: Evaluation A (Pre-1980)”, the mutagenic call is “active; positive”.
Consider `CC(CN(C)C)Nc1c2ccccc2nc2cccc([N+](=O)[O-])c12` (stereo not drawn), for which the mutagenic call is, setting by setting: under setting [2], “active; positive”; under setting [3], “active; positive”.
As for `Cc1cc2ccccc2c2ccc3ccccc3c12`, the call under setting [7] was “active; positive”. Also, the mutagenic call under setting [5] is “active; positive”.
For `C=C(C)CC(C)(C)C`, the mutagenic call under setting [11] was “no conclusion”.
For `Cc1ccc2oc(=O)ccc2c1`, the mutagenic call was “active; positive” (Species/Cell Type: Allium cepa, Assay Type: Chromosome aberrations, Assay Code: ALC+D, Dose Response: With dose response, Evaluation Type: Evaluation A (Pre-1980)) and “active; positive” (Species/Cell Type: Nonhuman, Assay Type: Chromosome aberrations in vitro, Assay Code: CY&+, Evaluation Type: Evaluation A (Pre-1980)).
Regarding `Cc1cc(C(=C2C=CC(=Nc3ccc(S(=O)(=O)O)cc3)C=C2)c2ccc(Nc3ccc(S(=O)(=O)O)cc3)cc2)cc(S(=O)(=O)O)c1N`, under setting [1], the mutagenic call is reported as “no conclusion”.
In the case of `O=NN1CCC(=O)CC1`, the mutagenic call by setting is: (Species/Cell Type: Drosophila melanogaster, Assay Type: Sex-linked recessive lethal gene mutation, Assay Code: SRLT, Evaluation Type: Evaluation A (Pre-1980)) “no conclusion”; under setting [5], “active; positive”.
Turning to `c1ccc2cc3c(cc2c1)-c1cccc2cccc-3c12`, under setting [7], the call was “active; positive”.
